This is an account of results in PubChem BioAssay (NCI).

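Briefly, cells in 96-well plates were exposed to five compound concentrations for 48 h, and endpoints were estimated by linear interpolation. Definition used: TGI = concentration required for complete inhibition of growth.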 Where only a bound is given, the exact number is not on record here.

Among the test systems are A549 NSCLC; SR leukemia; ACHN renal; MDA-MB-231 breast; OVCAR-4 ovarian; SK-MEL-5 melanoma; U251 CNS; UACC-257 melanoma; SF-268 CNS; OVCAR-8 ovarian; NCI/ADR-RES ovarian; K-562 leukemia; HCT-116 colon; SF-539 CNS; T-47D breast; HL-60(TB) leukemia; M14 melanoma; NCI-H460 lung; MCF7 breast.
What all share (assay): NCI tumour cell line growth inhibition, 48 h

With `COc1ccc2nc3ccc(OC)cc3c(S(=O)Cc3ccccc3)c2c1` (stereo not drawn), the TGI in the assay on A549 NSCLC is 37.3 µM; in the assay on SR leukemia, over 29.8 µM; with ACHN renal, 15.2 µM; in the assay with MDA-MB-231 breast it was 30.8 µM; in the assay on OVCAR-4 ovarian it was 30.2 µM; in the assay on SK-MEL-5 melanoma, 30.5 µM. Moreover, the TGI in the assay with U251 CNS was over 56.1 µM; with UACC-257 melanoma, 20.9 µM; in the assay on SF-268 CNS it was 40.2 µM; with OVCAR-8 ovarian it was 12.7 µM; in the assay on NCI/ADR-RES ovarian, 46.7 µM; in the assay on K-562 leukemia, over 25.6 µM. The TGI in the assay with HCT-116 colon was 6.3 µM; with SF-539 CNS it was 27.2 µM; in the assay on T-47D breast, 4.87 µM; in the assay with HL-60(TB) leukemia, 35.9 µM; in the assay on M14 melanoma, 30.1 µM; in the assay with NCI-H460 lung it was over 74.5 µM.
With `Cc1cn(C2CC(O)C(Cn3nncc3Cn3cnc4c(N)ncnc43)O2)c(=O)[nH]c1=O` (stereo not drawn), the TGI with A549 NSCLC, with SR leukemia, in the assay with ACHN renal, in the assay with OVCAR-4 ovarian, in the assay on SK-MEL-5 melanoma and in the assay on MCF7 breast was over 100 µM throughout. Also, the TGI in the assay with U251 CNS, in the assay on UACC-257 melanoma, in the assay with SF-268 CNS, in the assay on OVCAR-8 ovarian, with NCI/ADR-RES ovarian and in the assay on HCT-116 colon was over 100 µM each time. Further, the TGI with SF-539 CNS, in the assay on T-47D breast, in the assay on HL-60(TB) leukemia and in the assay on M14 melanoma was over 100 µM in each case.
As for `CCOC(=O)/C=C(/C(=O)OCC)n1ccc(=O)n(Cc2cn(CCCCOC(C)=O)nn2)c1=O`, the TGI in the assay on A549 NSCLC, with SR leukemia, with ACHN renal, with MDA-MB-231 breast, with OVCAR-4 ovarian and with SK-MEL-5 melanoma was over 100 µM in each case. Moreover, the TGI in the assay on MCF7 breast, in the assay on U251 CNS, with UACC-257 melanoma, in the assay on SF-268 CNS, in the assay with OVCAR-8 ovarian and with NCI/ADR-RES ovarian was over 100 µM in each case. Besides, the TGI in the assay with K-562 leukemia, with HCT-116 colon, in the assay with SF-539 CNS, in the assay with T-47D breast and in the assay with NCI-H460 lung was over 100 µM in each case.
As for `Cc1cc(C)c(NS(=O)c2ccc(Cl)cc2)c(C)c1` (stereo not drawn), the TGI with A549 NSCLC, in the assay on SR leukemia, with ACHN renal, with MCF7 breast, in the assay with U251 CNS and in the assay with UACC-257 melanoma was over 100 µM in each case. Further, the TGI with SF-268 CNS, in the assay on OVCAR-8 ovarian, with NCI/ADR-RES ovarian, in the assay on K-562 leukemia, in the assay with HCT-116 colon and in the assay on SF-539 CNS was over 100 µM in each case. Besides, the TGI in the assay with T-47D breast, in the assay on HL-60(TB) leukemia, in the assay with M14 melanoma and in the assay with NCI-H460 lung was over 100 µM in each case.
For the compound `Cc1cc(NS(=O)(=O)c2ccc(NO)cc2)no1`, the TGI in the assay on A549 NSCLC was over 100 µM; in the assay on SR leukemia it was 46.2 µM; in the assay on ACHN renal, over 100 µM; with MDA-MB-231 breast, over 100 µM; in the assay with OVCAR-4 ovarian it was over 100 µM; in the assay with SK-MEL-5 melanoma, over 100 µM. Besides, the TGI in the assay with MCF7 breast was 47.1 µM; in the assay with UACC-257 melanoma, over 100 µM; in the assay on SF-268 CNS it was over 100 µM; with OVCAR-8 ovarian, over 100 µM; with NCI/ADR-RES ovarian it was over 100 µM; with K-562 leukemia it was 43.7 µM. The TGI with HCT-116 colon, in the assay on SF-539 CNS, in the assay with HL-60(TB) leukemia, in the assay with M14 melanoma and with NCI-H460 lung was over 100 µM throughout.
With `O=C(Nn1c(-c2ccccc2)nc2ccccc2c1=O)c1cccc([N+](=O)[O-])c1`, the TGI in the assay on A549 NSCLC, with SR leukemia, in the assay with ACHN renal, in the assay with OVCAR-4 ovarian, in the assay with SK-MEL-5 melanoma and in the assay on MCF7 breast was over 100 µM throughout. Moreover, the TGI in the assay with U251 CNS, with UACC-257 melanoma, in the assay on SF-268 CNS, in the assay on OVCAR-8 ovarian, in the assay on K-562 leukemia and in the assay with HCT-116 colon was over 100 µM in each case. The TGI in the assay on SF-539 CNS, in the assay with T-47D breast, in the assay on HL-60(TB) leukemia, with M14 melanoma and in the assay on NCI-H460 lung was over 100 µM in each case.
Take `COc1cc2c(cc1NC(=O)c1ccccc1)c1c(n2S(=O)(=O)c2ccccc2)CCN(S(=O)(=O)c2ccccc2)C1`: the TGI in the assay with A549 NSCLC, in the assay with SR leukemia, in the assay on ACHN renal, with OVCAR-4 ovarian, in the assay with SK-MEL-5 melanoma and in the assay on U251 CNS was over 100 µM throughout. Besides, the TGI in the assay with UACC-257 melanoma, in the assay with SF-268 CNS, in the assay on OVCAR-8 ovarian, in the assay with NCI/ADR-RES ovarian, in the assay with K-562 leukemia and in the assay on HCT-116 colon was over 100 µM each time. For the same compound, the TGI in the assay with T-47D breast, with HL-60(TB) leukemia, in the assay with M14 melanoma and in the assay on NCI-H460 lung was over 100 µM throughout.
For the compound `Nc1ccc(-c2nc3ccccc3s2)cc1CO`, the TGI in the assay with A549 NSCLC, in the assay with SR leukemia, in the assay with ACHN renal, in the assay with MDA-MB-231 breast, in the assay with OVCAR-4 ovarian and with SK-MEL-5 melanoma was over 100 µM each time. Besides, the TGI in the assay with U251 CNS, in the assay on UACC-257 melanoma, with SF-268 CNS, with OVCAR-8 ovarian, with NCI/ADR-RES ovarian and in the assay with K-562 leukemia was over 100 µM in each case. For the same compound, the TGI in the assay on HCT-116 colon, in the assay on T-47D breast, with HL-60(TB) leukemia, in the assay with M14 melanoma and with NCI-H460 lung was over 100 µM throughout.
Take `CCC1=CC(OCc2ccccc2)C(CCN(Cc2ccccc2)C(=O)OCc2ccccc2)C1` (stereo not drawn): the TGI in the assay on A549 NSCLC was 32.1 µM; in the assay on SR leukemia it was 56.4 µM; with ACHN renal it was 30.9 µM; with MDA-MB-231 breast it was 62.6 µM; in the assay with OVCAR-4 ovarian, 27.4 µM; in the assay on SK-MEL-5 melanoma it was 37.8 µM. Moreover, the TGI came out at 35 µM with MCF7 breast; 62 µM in the assay with U251 CNS; 30.3 µM with UACC-257 melanoma; 32.5 µM in the assay with SF-268 CNS; 32.8 µM in the assay on OVCAR-8 ovarian; 35.3 µM with NCI/ADR-RES ovarian. Further, the TGI with K-562 leukemia is over 100 µM; with SF-539 CNS, 49.1 µM; with T-47D breast, 22.8 µM; with M14 melanoma, 27.8 µM; in the assay on NCI-H460 lung, 39.7 µM.
For the compound `CCC1(c2ccc(OC)c(OC)c2)CCN(S(=O)(=O)c2ccc(C)cc2)C1` (stereo not drawn), the TGI was over 100 µM with A549 NSCLC; over 10 µM in the assay with SR leukemia; over 100 µM in the assay with ACHN renal; over 100 µM with MDA-MB-231 breast; over 100 µM in the assay with OVCAR-4 ovarian; over 100 µM with SK-MEL-5 melanoma. Moreover, the TGI with MCF7 breast was over 100 µM; in the assay with U251 CNS, over 100 µM; with UACC-257 melanoma, over 100 µM; in the assay on SF-268 CNS, over 100 µM; in the assay on NCI/ADR-RES ovarian, over 100 µM; with K-562 leukemia, over 10 µM. Also, the TGI in the assay with HCT-116 colon, in the assay with SF-539 CNS, in the assay with T-47D breast, in the assay on M14 melanoma and in the assay on NCI-H460 lung was over 100 µM throughout.
As for `c1ccc2c(c1)nc1ccccn12`, the TGI with A549 NSCLC, with SR leukemia, in the assay on ACHN renal, in the assay with SK-MEL-5 melanoma, with MCF7 breast and in the assay on U251 CNS was over 100 µM each time. For the same compound, the TGI in the assay on UACC-257 melanoma, in the assay on SF-268 CNS, in the assay with OVCAR-8 ovarian, with NCI/ADR-RES ovarian, in the assay on K-562 leukemia and in the assay with HCT-116 colon was over 100 µM throughout. The TGI in the assay on SF-539 CNS, with T-47D breast, in the assay on HL-60(TB) leukemia, in the assay on M14 melanoma and in the assay on NCI-H460 lung was over 100 µM in each case.
With `N#CCCC1(CCC#N)S(=O)(=O)OCCOS1(=O)=O`, the TGI in the assay with A549 NSCLC, with SR leukemia, with ACHN renal, with OVCAR-4 ovarian, with SK-MEL-5 melanoma and in the assay on MCF7 breast was over 100 µM in each case. The TGI with U251 CNS, in the assay on UACC-257 melanoma, in the assay with SF-268 CNS, with OVCAR-8 ovarian, with NCI/ADR-RES ovarian and with HCT-116 colon was over 100 µM each time. Further, the TGI in the assay with SF-539 CNS was 31.1 µM; with T-47D breast, over 100 µM; in the assay with HL-60(TB) leukemia, 69.4 µM; in the assay with M14 melanoma, over 100 µM.
As for `COC(C)=NCCC1=CCCCC1`, the TGI in the assay on A549 NSCLC, in the assay on SR leukemia, with ACHN renal, in the assay with MDA-MB-231 breast, with OVCAR-4 ovarian and with SK-MEL-5 melanoma was over 100 µM each time. For the same compound, the TGI in the assay with MCF7 breast, in the assay with U251 CNS, in the assay with UACC-257 melanoma, with SF-268 CNS, with OVCAR-8 ovarian and in the assay on NCI/ADR-RES ovarian was over 100 µM in each case. Further, the TGI in the assay with K-562 leukemia, in the assay on HCT-116 colon, with T-47D breast, in the assay on M14 melanoma and in the assay on NCI-H460 lung was over 100 µM in each case.
